Measurements reported in ChEMBL document CHEMBL2440091, “The enzyme 3-hydroxykynurenine transaminase as potential target for 1,2,4-oxadiazoles with larvicide activity against the dengue vector Aedes aegypti” (2013).
Converted amounts (≈) assume the structure as drawn. The source made the active and inactive calls. No cut-off for these calls is given here.

What follows are molecules tested on Aedes aegypti (assay: Larvicidal activity against fourth instar larvae of Aedes aegypti assessed as induction of alterations in pigmentation pattern at 100 ppm after 24 hrs by microscopic analysis).
Assay type: functional, organism-based

Structure (SMILES)	Activity
COC(=O)CCc1cc(-c2ccccc2)no1	Active
O=C(O)CCc1cc(-c2ccccc2)no1	Active
O=C(O)CCc1nc(-c2ccc(Br)cc2)no1	Active

The molecules below were run on Aedes aegypti (assay: Larvicidal activity against fourth instar larvae of Aedes aegypti assessed as mortality after 48 hrs).
Assay type: functional

Structure (SMILES)	LC50 [µg/mL]
COC(=O)CCc1cc(-c2ccccc2)no1	13.2 (≈ 57.1 µM)
Cc1cccc(-c2noc(CCC(=O)O)n2)c1	63.8 (≈ 275 µM)
COc1ccc(-c2noc(CCCC(=O)O)n2)cc1	> 100
O=C(O)CCCc1nc(-c2ccc(I)cc2)no1	16.2 (≈ 45.2 µM)
O=C(O)CCc1nc(-c2ccc(F)cc2)no1	81.2 (≈ 344 µM)
O=C(O)Cc1nc(-c2ccc(Cl)cc2)no1	49.3 (≈ 207 µM)
O=C(O)CCCc1nc(-c2ccc3c(c2)OCO3)no1	72.9 (≈ 264 µM)
Cc1ccc(-c2noc(CC(=O)O)n2)cc1	92.3 (≈ 423 µM)
O=C(O)CCc1nc(-c2ccc(Cl)cc2)no1	28.1 (≈ 111 µM)
COC(=O)CCCc1nc(-c2ccc(Cl)c(Cl)c2)no1	6.8 (≈ 21.6 µM)
COC(=O)CCc1nc(-c2ccccc2)no1	30.6 (≈ 132 µM)
O=C(O)CCc1nc(-c2ccc([N+](=O)[O-])cc2)no1	50.5 (≈ 192 µM)
O=C(O)Cc1nc(-c2ccccc2)no1	> 100
O=C(O)CCc1cc(-c2ccccc2)no1	82.8 (≈ 381 µM)
Cc1ccc(-c2noc(CCC(=O)O)n2)cc1	65.8 (≈ 283 µM)
Cc1cccc(-c2noc(CCCC(=O)O)n2)c1	75.9 (≈ 308 µM)
COC(=O)CCCc1nc(-c2ccccc2)no1	59.9 (≈ 243 µM)
COc1ccc(-c2noc(CCC(=O)O)n2)cc1	71.5 (≈ 288 µM)
O=C(O)CCCc1nc(-c2ccc(Br)cc2)no1	10.6 (≈ 34.1 µM)
O=C(O)CCCc1nc(-c2ccccc2)no1	92.7 (≈ 399 µM)
O=C(O)Cc1nc(-c2ccc(Br)cc2)no1	67.9 (≈ 240 µM)
O=C(O)CCCc1nc(-c2ccc(Cl)cc2)no1	34.9 (≈ 131 µM)
O=C(O)CCc1nc(-c2ccccc2)no1	98.6 (≈ 452 µM)
O=C(O)CCc1nc(-c2ccc(Br)cc2)no1	15.2 (≈ 51.2 µM)
Cc1ccccc1-c1noc(CCC(=O)O)n1	70.9 (≈ 305 µM)
CC(=O)CCc1nc(-c2ccccc2)no1	> 100
OCCCc1cc(-c2ccccc2)no1	> 100
